For one series, the system named is DDX3X. Description: ATPase assay of DDX3X. Type of series: biochemical, human. Particulars: CK1ε pre-incubated with D4476; dsRNA-stimulated. As to the method: For the ATPase assay, Flag-tagged DDX3X full-length constructs were expressed in HEK293T cells. After purifying and eluting DDX3X from the beads, an aliquot of the eluates was resolved by SDS-PAGE in order to monitor the different DDX3X levels via western blotting and ImageJ. Based on this comparison, similar amounts of full-length DDX3X protein were used. Approximately 100 ng Flag-DDX3X protein and 10 ng His-CK1ε were used in a 60 μl reaction mix (reaction buffer: 20 mM Tris-HCl, pH 7.4, 200 mM NaCl, 0.5 mM DTT, 1 mM MgCl2, 1 mM ATP) with dsRNA (17 nM, 34 nM, 68 nM); the reaction was carried out at 37°C for 40 min. To phosphorylate DDX3X, 500 ng His-CK1εΔC or His-CK1εΔC^K38R were added in kinase buffer before eluting the DDX3X protein from the Sepharose magnetic Flag beads (Sigma). Incubation was performed at 37°C for 30 min. Then, beads were washed with 50 mM Tris-HCl, pH 7.5 and 500 mM NaCl before elution with Flag peptide. Termination of the helicase reaction was done with 10 μl of 50% TCA solution added to each reaction followed by centrifugation at 3000 g for 5 min at 4°C. Reaction mix was mixed with coloring solution (35 mM ammonium molybdate, 10 mM zinc acetate, 10% ascorbic acid, pH 5) in a 96-well plate before analysis using a spectrometer (wavelength 700 nm).

For series [1] the following is noted: reason given for adding Fugene HD; ref Rena et al., 2004; cited from earlier work. As to the method: Where applicable, the small-molecule CK1 inhibitor D4476 (BioVision) was added to the cells 2-4 h prior to the analysis. For each triplicate the respective volume of D4476 (in DMSO) was added together with 1 μl Fugene HD (Promega) to 60 μl serum-free medium. The solution was mixed, incubated for 15 min and added to the cells. […] In the corresponding control ...

The subject of series [2] is endogenous CK1 / CK1 sensor in HEK293T cells. Description: CK1 FRET biosensor, microplate reader FRET/CFP ratio. The note with it: HEK293T, CK1 sensor; D4476 0.4 or 2 µM in Fig. 1F-H, added 2-4 h prior to analysis; n=3. Type of series: cell-based, human. The protocol:
HEK293T cells were seeded at a density of 20,000 cells/well on 96-well black microplates (PS, μClear, clear bottom, chimney well, Greiner No. 655090). Transfection was performed as described above. Unless indicated otherwise, the respective cell populations were transfected with 50-100 ng CK1 FRET biosensor, 100 ng regulator (i.e. N-Flag DDX3X) and 1-10 ng kinase (i.e. N-Flag CK1ε). Either empty pCS2 N-Flag vector or luciferase were used to transfect the same amount of DNA in every well. Generally, the different samples were run in triplicate for each individual experiment. Owing to the varying values for the FRET/CFP ratios based on transfection efficiency, cell density and the time point of analysis, we always set the FRET/CFP ratio of cells only transfected with the CK1 sensor to 1 in order to compare individual experiments. Importantly, the individual figures with the CK1 sensor represent only experiments performed on the same 96-well plate with the same cell density, transfection efficiency and time point.
Where applicable, the small-molecule CK1 inhibitor D4476 (BioVision) was added to the cells 2-4 h prior to the analysis. For each triplicate the respective volume of D4476 (in DMSO) was added together with 1 μl Fugene HD (Promega) to 60 μl serum-free medium. The solution was mixed, incubated for 15 min and added to the cells. […] In the corresponding controls an equal amount of DMSO instead of the inhibitor was added to the medium. Analysis was performed 48-60 h after transfection on an Infinite M1000 PRO microplate reader (Tecan) by exciting CFP with a wavelength of 433 nm and measuring the resulting emission at 460-600 nm in 2 nm increments. Fluorometric spectra were background subtracted with spectra recorded from wells with non-transfected cells. Resulting FRET/CFP ratios were calculated by dividing the intensity values at the respective peaks (478 nm for CFP, 528 nm for YFP) and analyzed essentially as described ([Fritz et al., 2013]). Where indicated, CK1δ/ε-derived peptides were transfected into cells using Metafectene (Biontex) 1 hour before measurements.

In the case of `NC(=O)c1ccc(-c2nc(-c3ccc4c(c3)OCCO4)c(-c3ccccn3)[nH]2)cc1` [D4476, reference compound], in the series with DDX3X, the “effect of CK1 inhibitor on CK1ε-mediated inhibition of DDX3X ATPase activity” value was “prevented inhibition of the ATPase activity of DDX3X”. Further, the cell permeability entry in series [1] is recorded as “poor cell permeability”. Besides, the “effect of CK1 inhibitor on FRET/CFP ratio of CK1 sensor” value in series [2] was “reduced as a result of the inhibitor treatment”.

The record behind these values is paper PMC5818060 (Journal of Cell Science, 2018).
